Results reported in patent US20060235084A1, “PEG-polyacetal diblock and triblock copolymers and pharmaceutical compositions” (priority 2005, published 2006).

Test: In vitro release of paclitaxel from triblock copolymer gel into PBS release media
Type: physicochemical
Details: 23% by weight aqueous triblock copolymer of Example 1, paclitaxel approx. 2.0 mg/ml; PBS pH 7.4 with 2.4% Tween-80 and 4% Cremophor EL, 37° C.; HPLC
Procedure: To a 23% by weight aqueous solution of the triblock copolymer of Example 1 is added sufficient paclitaxel to provide approximately 2.0 mg/ml of drug. A 2 ml sample of this solution is put onto a watchglass and equilibrated at 37° C. Since the temperature is greater than the gelation temperature of the copolymer, a gel formed on the watchglass. The watchglass is placed in a 200 ml beaker containing release media comprised of 150 ml of PBS (pH 7.4) containing 2.4% by weight Tween-80 and 4% by weight Cremophor EL equilibrated at 37° C. The solution in the beaker was stirred, and the top of the beaker is sealed to prevent evaporation. The whole assembly was placed into an incubator at 37° C. The release study is performed in triplicate. At different time periods a 5 ml aliquot of the release media was taken and analyzed for […]. The PBS solution was replaced with fresh PBS after each aliquot removal. Samples were collected at 1, 2, 4, 8, 18, and 24 hours, and thereafter at 24 hour intervals, and analyzed by HPLC. The release profile of […] from the gel is determined. The gel formulation provides excellent control over the release of the paclitaxel for approximately 50 days.

CC(=O)O[C@H]1C(=O)[C@@]2(C)[C@H]([C@H](OC(=O)c3ccccc3)[C@]3(O)C[C@H](OC(=O)[C@H](O)[C@@H](NC(=O)c4ccccc4)c4ccccc4)C(C)=C1C3(C)C)[C@]1(OC(C)=O)CO[C@@H]1C[C@@H]2O [paclitaxel]
duration of controlled release from the gel formulation: approximately 50 days
